According to patent US11883434B2, “Extracellular vesicles and methods of using” (NUtech Ventures, priority 2017, dated 2024):

Legend:
[1] = test system: human small intestinal cells (FHs cells); experiment: Uptake of milk exosomes into FH cells (protease, glycosidase, lectin, sonication); assay type: cell-based
[2] = test system: human colon carcinoma Caco-2 cells; assay type: cell-based
Procedure: Caco-2 cells and IEC-6 cells were seeded at a density of 20,000 and 7000 cells/well, respectively, in 96-well plates, and allowed to adhere for 48 h, when cells were 75% confluent. The exosomes were labeled with the fluorophore, FM 4-64 (Molecular Probes). One microliter of a stock solution of FM 4-64 (5.9 mmol/L) was added to 1 mL of exosome suspension and incubated for 15 min at 37° C., and excess FM 4-64 was removed by ultracentrifugation at 120,000 3 g at 4° C. for 90 min. […] Assays were calibrated by quantifying the fluorescence of a known mass of exosomes labeled with FM 4-64. Exosome uptake was analyzed by measuring the cell fluorescence at 515 (excitation) and 640 nm (emission) using a Biotek FLx800 plate reader (BioTek Instru-ments). Fluorescence readings were corrected for cell autofluorescence by subtracting signals measured in cells incubated with exosome-depleted media. […] In Caco-2 cells, exosome uptake was linear for up to 120 min if transport was measured using nonsaturating substrate concentrations (FIG. 33A): y=0.0012x+0.014 (r2=0.97; P<0.05). In IEC-6 cells exosome uptake was linear for only up to 60 min if transport was measured using nonsaturating substrate concentrations (FIG. 33B): y=0.0033x+0.033 (r2=0.75; P<0.05). […]

Caco-2 cells = assay type: in vitro ADME, human
Procedure: In transwell studies Caco-2 cells were seeded at a density of 9000 cells/well with […] of media in 96-well polycarbonate plates with a pore size of […] (EMD Millipore). The cells were allowed to grow a differentiated monolayer for 21-24 d (33). Caco-2 cell monolayer integrity was formally confirmed using the Lucifer yellow (LY) rejection assay according to the manufacturer's instructions (33). LY fluorescence was measured in the transwell apical and basolateral chambers after 1 h of incubation at 37° C. In parallel experiments, Caco-2 cells were cultured in exosome-depleted media to which milk exosomes were added back to produce a concentration of 275 mg/100 mL exosomal protein in either the upper, apical chamber or the lower, basolateral chamber. Controls were cultured in exosome-depleted media. Aliquots of media were collected from the upper chamber and bottom chamber after 2 h of incubation for analysis of microRNAs. Twenty-five attomoles of internal standard (miSPIKE Synthetic RNA; IDT Technologies) was added to samples before microRNA extraction and subsequent analysis of miR-29b and miR-200c in transwell chambers by quantitative real-time PCR and microRNA-specific primers; miSpike was also used for PCR calibration. Values were corrected for the internal standard to normalize for extraction efficiency.

[3] = test system: human umbilical vein endothelial cells (HUVEC); experiment: Uptake of fluorophore-labeled milk exosomes into HUVECs; assay type: cell-based; settings: for effect on exosome uptake in HUVEC cells: inhibitors or 150 mmol/L carbohydrate competitors
HUVEC = experiment: Cell death (MTT viability) assay with puromycin-loaded exosomes; assay type: cell-based, human; settings: 1,837 μM puromycin added directly to media, 24 h
Procedure: The possibility that adherence to cells, rather than uptake into cells, accounted for cell fluorescence was dismissed based on the following cell death-based and enhanced green fluorescent protein (eGFP) protocols. Milk exosomes were suspended in BTXpress electroporation buffer (BTX, Holliston, MA; final concentration 100 […]), containing zero (negative control), 56 μM, or 223 μM puromycin in a 4-mm electroporation cuvette. Exosomes were loaded with puromycin or with a mammalian eGFP expression plasmid by electroporation in a Gene Pulser Xcell electroporator (Bio-Rad) using 250 V, 950 μF, and infinite resistance. Extra-exosomal puromycin was removed by ultracentrifugation and washing, and exosomes were resuspended in 300 μl of exosome-depleted cell culture media. In cell death assays, 100 μl of the suspension were added per well in a 96-well cell culture plate (containing ˜200 μl of media) and cells were cultured for 24 h, when viability was assessed using the MTT assay. Positive controls were created by adding puromycin directly to the media without encapsulation in exosomes, thereby producing a concentration of 1,837 μM puromycin. In eGFP assays, cells were cultured in media in which eGFP-loaded milk exosomes were substituted for exosomes in fetal bovine serum. Expression of eGFP was assessed by using confocal microscopy 3 days after initiation of cultures.

[4] = test system: human macrophage U937 cells; experiment: Uptake of milk exosomes into U937 cells; assay type: cell-based; settings: exosomes treated with the labelled agent
[5] = FH cells treated with the labelled agent
[6] = exosomes treated with the labelled agent

Compound | effect on exosome uptake in FH cells [1, 5] | effect on exosome uptake in FH cells [1, 6] | effect on exosome uptake in HUVEC cells [3] | also measured
SBA: Lectin binding terminal N-acetylgalactosamine and galactopyranosyl residues | decreases the uptake | decreases the uptake |  | 
Glu-C: Serine protease cleaving at glutamic acid and aspartic acid |  |  |  | effect on exosome uptake in Caco-2 cells ([2]; Caco-2): significant decrease in exosome transport; transport rates (Vmax) ([2]; exosomes treated with the labelled protease, intestinal transport): 19±0.3 arbitrary units
Lucifer yellow |  |  |  | rejection rate (Caco-2 cells): 99.8%
C[C@H]1CCC/C=C/[C@@H]2C[C@H](O)C[C@H]2[C@H](O)/C=C/C(=O)O1 [BFA, brefeldin A] |  |  | decrease in exosome uptake | 
COc1ccc(C[C@H](N)C(=O)N[C@H]2[C@@H](O)[C@H](n3cnc4c(N(C)C)ncnc43)O[C@@H]2CO)cc1 [puromycin] |  |  |  | viability (HUVEC): 37 % of puromycin-free controls
C=C1[C@@H](C)[C@H]2[C@H](Cc3ccccc3)NC(=O)[C@]23[C@H](OC(C)=O)/C=C/[C@@](C)(O)C(=O)[C@@H](C)C/C=C/[C@H]3[C@@H]1O [cytochalasin D] |  |  | decrease in exosome uptake | decrease of exosome transport compared with controls ([3]; HUVEC, exosomes treated with proteinase K, or transport in presence of the labelled agent): 50%; exosome uptake ([3]; cells treated with 5 μg/ml cytochalasin D): 63.5±21.3 % of controls; exosome uptake ([3]; cells treated with 10 μg/ml cytochalasin D): 40.8±22.0 % of controls
β-galactosidase | decrease in exosome uptake | decrease in exosome uptake |  | effect on exosome uptake in U937 cells [4]: decrease in exosome uptake
O=C[C@H](O)[C@@H](O)[C@@H](O)[C@H](O)CO [D-galactose] |  |  | significant decrease in exosome uptake | 
PHA-E: Lectin binding terminal galactose, N-acetylglucosamine and mannose residues of complex glycans | decreases the uptake | decreases the uptake |  | 
